Assay results: paper PMC10692721, “Drug discovery for heart failure targeting myosin-binding protein C” (The Journal of Biological Chemistry, 2023)
Where a name gives a salt, the structure may show the parent alone.

How the values were obtained:
[1] = system: FMAL-actin plus TMR-cC0-C2; test: Selleck library HTS, 473 nm excitation (FLT of FMAL-actin with TMR-cC0-C2, FLT-FRET); type: binding, human; details: for 473-nm Δτ, Repeat 1 / 473-nm Δτ, Repeat 2: initial screen, 30 μM compound; for 473-nm z-score (based on avg Δτ): robust z-score, hit threshold ±4, 30 μM compound
Procedure: (§1) Fluorescence lifetime (FLT) measurements were acquired using a high-throughput FLT plate reader (Fluorescence Innovations, Inc) ([14], [27]), provided by Photonic Pharma LLC. […] The observed waveforms were analyzed as described previously ([15], [28]).
(§2) In total, 50 nl of each solution was dispensed in DMSO using an automated Echo 550 acoustic liquid dispenser (Labcyte). Compounds were formatted into the assay plates, at a final concentration of 30 μM, with the first two and second to last columns loaded with DMSO only (compound-free controls). In the final column, 30 μM of suramin was loaded as a positive control (tool compound). These assay plates were then heat-sealed using a PlateLoc Thermal Microplate Sealer (Agilent Technologies) and stored at −20 °C. Before screening, compound plates were equilibrated to room temperature (∼25 °C). […] Plates were incubated at room temperature for 60 min before recording the data with the fluorescence lifetime plate reader.
After fitting the waveforms with a single exponential decay to quantify donor FLT, the change in FLT (Δτ) was computed by performing a moving median subtraction in the order the plate was scanned with a window size of half a plate row […]. The reasons for this are twofold. Firstly, plate gradients are often observed due to the heating of the digitizer during acquisition.
To account for the necessity to correct for plate gradients in the computation of E, the median τDMSO prior to the application of the moving median correction was added to each well’s Δτ value to recover a rescaled value of τ.

[2] = system: PKA-phosphorylated TMR-cC0-C2 (cC0-C2#P); test: FLT-TMR concentration-response assay, PKA-phosphorylated cC0-C2; type: binding, human; details: 60 μM compound
Procedure: (§3) Compounds identified as initial hits were further examined to determine the concentration–response curves for seven conditions ([1]): FMAL-actin alone identified actin-binding compounds that alter the FLT of FMAL-actin ([2]).
as §1
(§4) The primary hits were dissolved in DMSO to make a 10 mM stock solution, which was serially diluted in 96-well mother plates. Hits were screened at eight concentrations (0.5–100 μM). […] Compounds (1 μl) were transferred from the mother plates into 384-well plates using a Mosquito HV liquid handler (TTP Labtech Ltd, Hertfordshire, UK). The same procedure of dispensing as for the pilot screening was applied in the concentration-response assays. Concentration dependence of the FLT-FRET (E/EDMSO) or FLT-TMR (Δτ) change data was fit to a Hill equation only under certain conditions to help guide the eye (Fig. 4).

[3] = system: TMR-fC1-C2 (C1-C2 of fast skeletal MyBP-C); test: FLT-TMR concentration-response assay, fC1-C2; type: binding; details: 60 μM compound
Procedure: as §3, §1, §4

TMR-cC0-C2 = test: Selleck library HTS, 532 nm excitation (FLT of TMR-cC0-C2 in presence of FMAL-actin); type: binding, human; details: for 532-nm Δτ, Repeat 1 / 532-nm Δτ, Repeat 2: initial screen, 30 μM compound; for 532-nm z-score (based on avg Δτ): robust z-score, hit threshold ±4, 30 μM compound
Procedure: as §1, §2
Hits that exceeded the z-score hit criteria in the donor-only screen were excluded from consideration. To remove compounds with confounding fluorescence properties, a similarity index (SI, specifically the cosine distance, Equation 5) was computed using data from the SUPR instrument by comparing a region (500–540 nm) of the donor-only spectrum (I^(a)) for each well to that of the plate-wide average DMSO spectrum (I^(b)) in the same wavelength band ([29]). Compounds that exceeded an SI robust z-score of 4 were deemed likely fluorescent compounds and removed from consideration.(5) SI=1−∑Ii(a).Ii(b)/∑Ii(a).Ii(a)∑Ii(b).Ii(b)

[4] = system: TMR-cC0-C2 (C0-C2 fragment of human cMyBP-C); test: FLT-TMR concentration-response assay (FLT of TMR on cC0-C2, no actin); type: binding; details: for cC0-C2/cC0-C2#P (ratio of FLT changes) / cC0-C2 FLT change (% change from DMSO, FLT of TMR-MyBP-C): 60 μM compound
Procedure: as §3, §1, §4

[5] = system: FMAL-actin/TMR-cC0-C2 interaction; test: FLT-FRET concentration-response assay, FMAL-actin plus TMR-cC0-C2; type: binding, human
Procedure: as §3, §1, §4

[6] = listed as Erlotinib HCl (OSI-744)

| Compound | 473-nm Δτ, Repeat 1 [1, 6] [ns] | 473-nm Δτ, Repeat 2 [1, 6] [ns] | 473-nm z-score (based on avg Δτ) [1, 6] | cC0-C2#P FLT change (% change from DMSO, FLT of TMR-MyBP-C) [2] [%] | cC0-C2/fC1-C2 (ratio of FLT changes) [3] | fC1-C2 FLT change (% change from DMSO, FLT of TMR-MyBP-C) [3] [%] | 532-nm Δτ, Repeat 1 (TMR-cC0-C2; [6]) [ns] | 532-nm Δτ, Repeat 2 (TMR-cC0-C2; [6]) [ns] | 532-nm z-score (based on avg Δτ) (TMR-cC0-C2; [6]) | cC0-C2/cC0-C2#P (ratio of FLT changes) [4] | cC0-C2 FLT change (% change from DMSO, FLT of TMR-MyBP-C) [4] [%] | 473-nm Δτ, Repeat 1 [1] [ns] | 473-nm Δτ, Repeat 2 [1] [ns] | 473-nm z-score (based on avg Δτ) [1] | 532-nm Δτ, Repeat 1 (TMR-cC0-C2) [ns] | 532-nm Δτ, Repeat 2 (TMR-cC0-C2) [ns] | 532-nm z-score (based on avg Δτ) (TMR-cC0-C2) | difference in effect on TMR FLT between unphosphorylated and phosphorylated TMR-cC0-C2 ([4]; from Table 3) [fold] | fold effect on increased FRET (or binding) (Table 2) ([5]; comparison not given) | specificity of FLT-FRET effect for unphosphorylated over phosphorylated cC0-C2 ([5]; effect on cC0-C2 compared to phosphorylated cC0-C2 (Tables 1 and 2)) |
| --- | --- | --- | --- | --- | --- | --- | --- | --- | --- | --- | --- | --- | --- | --- | --- | --- | --- | --- | --- | --- |
| C#Cc1cccc(Nc2ncnc3cc(OCCOC)c(OCCOC)cc23)c1 [Erlotinib HCl] | -0.040 | -0.010 | -1.36 | 13.9 | 1.1 | 11.1 | 0.138 | 0.020 | 4.88 | 0.8 | 11.8 |  |  |  |  |  |  |  |  |  |
| Cc1nc(-c2ccc(OCC(C)C)c(C#N)c2)sc1C(=O)O [Febuxostat] |  |  |  | 12.1 | 0.7 | 14.6 |  |  |  | 0.8 | 9.6 | 0.070 | 0.043 | 3.18 | 0.129 | 0.132 | 8.01 |  |  |  |
| CCc1c(Cl)c(O)c(Cl)c(O)c1C(=O)O[C@H]1[C@H](O)[C@H](OC)[C@H](OC/C2=C\C=C\C[C@H](O)/C(C)=C/[C@H](CC)[C@@H](O[C@@H]3OC(C)(C)[C@@H](OC(=O)C(C)C)[C@H](O)[C@@H]3O)/C(C)=C/C(C)=C/C[C@@H]([C@@H](C)O)OC2=O)O[C@@H]1C [Fidaxomicin] |  |  |  | −0.5 | 1.2 | −4.3 |  |  |  | 10.4 | −5.2 | 0.057 | 0.084 | 3.98 | -0.001 | -0.028 | -0.86 | 10.4 |  |  |
| CC1(C)CC[C@]2(C(=O)O)CC[C@]3(C)C(=CC[C@@H]4[C@@]5(C)CC[C@H](O)[C@@](C)(CO)[C@@H]5CC[C@]43C)[C@@H]2C1 [Hederagenin] |  |  |  | 3.6 | 1.1 | 2.3 |  |  |  | 0.7 | 2.5 | 0.083 | 0.060 | 4.06 | -0.038 | -0.038 | -2.29 |  |  |  |
| Cc1cn(-c2cc(NC(=O)c3ccc(C)c(Nc4nccc(-c5cccnc5)n4)c3)cc(C(F)(F)F)c2)cn1.Cl [Nilotinib hydrochloride] |  |  |  | 14.1 | 0.6 | 15.6 |  |  |  | 0.7 | 10.1 | -0.063 | -0.031 | -2.59 | 0.121 | 0.105 | 6.94 |  |  |  |
| Cc1cnc(C(=O)N[C@H]2CCCCC/C=C\[C@@H]3C[C@@]3(C(=O)NS(=O)(=O)C3CC3)NC(=O)[C@@H]3C[C@@H](Oc4nc5ccccc5c5ccccc45)CN3C2=O)cn1 [Paritaprevir (ABT-450), Paritaprevir] |  |  |  | 20.3 | 2.2 | 11.0 |  |  |  | 1.2 | 23.8 | 0.115 | 0.058 | 4.85 | 0.220 | 0.254 | 14.52 |  |  |  |
| C[C@H]1O[C@@H](O[C@H]2CC[C@@]3(C)[C@@H](CC[C@]4(C)[C@@H]3C=C[C@]35OC[C@@]6(CCC(C)(C)C[C@H]63)[C@H](O)C[C@]54C)[C@]2(C)CO)[C@H](O)[C@@H](O[C@@H]2O[C@H](CO)[C@@H](O)[C@H](O)[C@H]2O)[C@H]1O [Saikosaponin D] |  |  |  | 6.3 | 1.3 | 4.2 |  |  |  | 0.9 | 5.4 | -0.122 | -0.094 | -5.99 | 0.065 | 0.086 | 4.65 |  | fivefold or greater | 13–54 fold |
| O=C(O)[C@H]1O[C@@H](Oc2cc3oc(-c4ccc(O)cc4)cc(=O)c3c(O)c2O)[C@H](O)[C@@H](O)[C@@H]1O [Scutellarin] |  |  |  | −8.7 | 1.0 | −9.5 |  |  |  | 1.0 | −9.1 | 0.142 | 0.076 | 6.15 | -0.111 | -0.145 | -7.79 |  |  |  |
| CC1(C)CCC(C)(C)c2cc(NC(=O)c3ccc(C(=O)O)cc3)ccc21 [Tamibarotene] |  |  |  | 7.2 | 0.9 | 5.9 |  |  |  | 0.7 | 5.2 | 0.075 | 0.067 | 4.00 | 0.075 | 0.106 | 5.55 |  |  |  |
| O=C(Nc1ccc(Cl)cc1)Nc1ccc(Cl)c(Cl)c1 [Triclocarban] |  |  |  | 18.2 | 0.5 | 22.2 |  |  |  | 0.6 | 11.6 | -0.128 | -0.042 | -4.72 | 0.374 | 0.415 | 24.12 |  |  |  |
| C[C@@H]1O[C@@H](OC[C@H]2O[C@@H](Oc3c(-c4ccc(OCCO)c(OCCO)c4)oc4cc(OCCO)cc(O)c4c3=O)[C@H](O)[C@@H](O)[C@@H]2O)[C@H](O)[C@H](O)[C@H]1O [Troxerutin] |  |  |  | 7.3 | 1.0 | 6.0 |  |  |  | 0.8 | 6.1 | -0.024 | -0.024 | -1.32 | 0.074 | 0.088 | 4.99 |  |  |  |
